Reference: patent publication US20250222044A1, “LIMOSILACTOBACILLUS REUTERI GOLDGUT-LR99 AND APPLICATION THEREOF” (priority 2024, published 2025)
Where a SMILES comes first, the peptide text is derived from it.

These compounds were tested on Limosilactobacillus reuteri GOLDGUT-LR99 (assay: Carbon source utilization and oxidation experiment (AN Biolog micro-pore plate)). Conditions: substrate utilization by the strain.
Type: cell-based
Description: The AN Biolog micro-pore plate was used for measuring the utilization and oxidation conditions of different carbon sources of Limosilactobacillus reuteri GOLDGUT-LR99, the AN microplate used nutrients and biochemical reagents, and the method included the following steps: 1 mL of Limosilactobacillus reuteri GOLDGUT-LR99 bacterial liquid of the strain to be detected at the end of logarithmic growth was pipetted and centrifuged, then the supernatant was removed, the cells was washed three times with the seed liquid and suspended with 1 mL of the seed liquid, 50 μL of the suspension was taken and diluted in 10 mL of the seed liquid, the diluent was subpacked in a Biolog plate (100 μL/pore) after mixing uniformly, and the Biolog plate with the diluent was placed in 37° C. for anaerobic culture for 24 hours. After the culture was finished, OD590 and OD750 were detected by using microplate reader, the numerical values were recorded, and the utilization conditions of carbohydrate, organic acid and other substances of the Limosilactobacillus reuteri GOLDGUT-LR99 were calculated, wherein the calculation method was as follows: Y=OD590−OD750;

| SMILES | utilization effect (in words) |
| --- | --- |
| OCC1OC(OC2OC(CO)C(O)C(O)C2O)C(O)C(O)C1O [L-Trehalose] | better utilization effect |
| CC(C)[C@H](N)C(=O)O [L-Valine] | good utilization effect |

Same assay, conditions: substrate utilization by the strain, 37° C. anaerobic culture for 24 hours

| SMILES | Utilization (Y=OD590−OD750) |
| --- | --- |
| C[C@H](N)C(=O)N[C@@H](Cc1c[nH]cn1)C(=O)O [L-Alanyl-histidine] (H-Ala-His-OH) | − (when Y < 0.05, it is shown that the strain was not able to utilize this substance, marked as −) |
| N[C@@H](CCC(=O)O)C(=O)O [L-Glutamic acid] | − (when Y < 0.05, it is shown that the strain was not able to utilize this substance, marked as −) |
| C[C@H](O)C(=O)O [L-Lactic acid] | ++ (when Y > 0.1, it is shown that the strain was able to effectively utilize this substance, marked as++) |
| O=C(O)C[C@H](O)C(=O)O [L-Malic acid] | − (when Y < 0.05, it is shown that the strain was not able to utilize this substance, marked as −) |
| CSCC[C@H](N)C(=O)O [L-Methionine] | − (when Y < 0.05, it is shown that the strain was not able to utilize this substance, marked as −) |
| N[C@@H](Cc1ccccc1)C(=O)O [L-Phenylalanine] | − (when Y < 0.05, it is shown that the strain was not able to utilize this substance, marked as −) |
| C[C@H](O)[C@H](O)[C@@H](O)[C@@H](O)C=O [L-Rhamnose] | ++ (when Y > 0.1, it is shown that the strain was able to effectively utilize this substance, marked as++) |
| N[C@@H](CO)C(=O)O [L-Serine] | − (when Y < 0.05, it is shown that the strain was not able to utilize this substance, marked as −) |
| C[C@@H](O)[C@H](N)C(=O)O [L-Threonine] | − (when Y < 0.05, it is shown that the strain was not able to utilize this substance, marked as −) |
| OCC1OC(OC2OC(CO)C(O)C(O)C2O)C(O)C(O)C1O [L-Trehalose] | ++ (when Y > 0.1, it is shown that the strain was able to effectively utilize this substance, marked as++) |
| CC(C)[C@H](N)C(=O)O [L-Valine] | + (when 0.1 > Y > 0.05, it is shown that the strain was able to better utilize this substance, marked as +) |
| OC[C@H]1O[C@H](O[C@H]2[C@H](O)[C@@H](O)[C@H](O)O[C@@H]2CO)[C@H](O)[C@@H](O)[C@@H]1O [Maltose] | − (when Y < 0.05, it is shown that the strain was not able to utilize this substance, marked as −) |
| OC[C@H]1O[C@@](CO)(O[C@H]2O[C@H](CO)[C@@H](O)[C@H](O)[C@H]2O)[C@@H](O[C@H]2O[C@H](CO)[C@@H](O)[C@H](O)[C@H]2O)[C@@H]1O [Melezitose] | ++ (when Y > 0.1, it is shown that the strain was able to effectively utilize this substance, marked as++) |
| COC(C)=O [Methyl acetate] | ++ (when Y > 0.1, it is shown that the strain was able to effectively utilize this substance, marked as++) |
| COC(=O)C(C)O (stereo not shown) [Methyl lactate] | + (when 0.1 > Y > 0.05, it is shown that the strain was able to better utilize this substance, marked as +) |
| CC(=O)N[C@H]1C(O)O[C@H](CO)[C@H](O)[C@@H]1O (stereo partly drawn) [N-Acetyl-D-galactosamine] | − (when Y < 0.05, it is shown that the strain was not able to utilize this substance, marked as −) |
| CC(=O)N[C@H]1C(O)O[C@H](CO)[C@@H](O)[C@@H]1O (stereo partly drawn) [N-Acetyl-D-glucosamine] | − (when Y < 0.05, it is shown that the strain was not able to utilize this substance, marked as −) |
| CC(=O)N[C@H]1[C@@H](O)[C@H](O)[C@@H](CO)O[C@H]1O [N-Acetyl-β-D-mannosamine] | − (when Y < 0.05, it is shown that the strain was not able to utilize this substance, marked as −) |
| OC[C@H]1O[C@H](OC[C@H]2OC(O)(CO)[C@@H](O)[C@@H]2O)[C@H](O)[C@@H](O)[C@@H]1O (stereo partly shown) [Palatinose] | ++ (when Y > 0.1, it is shown that the strain was able to effectively utilize this substance, marked as++) |
| CCC(=O)O [Propionic acid] | − (when Y < 0.05, it is shown that the strain was not able to utilize this substance, marked as −) |
